Laboratory results taken from patent publication US9856290B2, “Glycopeptide compositions and uses thereof” (SUSSEX RESEARCH LABORATORIES INC., priority 2013, dated 2018).
Marks after values point to notes of the source that are not given here. Primed or numbered codes have the meaning given here. The star is where a group is joined. Ac4‑β‑Gal = tetraacetyl-β-galactoside (peracetylated β-galactose), CC(=O)OC[C@H]1O[C@@H](*)[C@H](OC(C)=O)[C@@H](OC(C)=O)[C@H]1OC(C)=O; Ac3‑β‑GlcNAc = per-acetylated β-N-acetylglucosamine, CC(=O)N[C@@H]1[C@@H](OC(C)=O)[C@H](OC(C)=O)[C@@H](COC(C)=O)O[C@H]1*; Ac4‑β‑Glc = per-acetylated β-glucose (tetraacetyl), CC(=O)OC[C@H]1O[C@@H](*)[C@H](OC(C)=O)[C@@H](OC(C)=O)[C@@H]1OC(C)=O; Ac4‑β‑Glc″ = peracetylated beta-glucose, CC(=O)OC[C@H]1O[C@@H](*)[C@H](OC(C)=O)[C@@H](OC(C)=O)[C@@H]1OC(C)=O; βGlcNAc = CC(=O)N[C@@H]1[C@@H](O)[C@H](O)[C@@H](CO)O[C@H]1*; βGlc = OC[C@H]1O[C@@H](*)[C@H](O)[C@@H](O)[C@@H]1O; Palmitoyl = CCCCCCCCCCCCCCCC(=O)*

Assays:
[1] = tested on: Human Dermal Fibroblasts (KMST-6); experiment: ECM ELISA assay: elastin secretion by human dermal fibroblasts; assay type: cell-based; conditions: 5 μM; for increased elastin secretion compared to control: versus DMSO control; for Elastin Secretion at 48 hours: KMST-6, 48 hours; for Elastin Secretion at 48 hours / Elastin Secretion at 72 hours: % compared to control set at 100%, normalized to total protein; for Elastin Secretion at 72 hours / ELASTIN (ECM Protein Summary Table): KMST-6, 72 hours; for ELASTIN (ECM Protein Summary Table): control 100%
Experimental: (§1) KMST-6 cells (Japan Health Sciences Foundation, JCRB0433) were seeded at 7,000 cells/ml in 12-well tissue culture treated plates (Falcon, 353043) in complete media. The complete media consisted of the following: MEM/EBSS (Hyclone, SH30024.01), 10% Heat-Inactivated FBS (Gibco, 10082-147), 1% L-Glutamine (Hyclone, SH30031.01), 1% Nucleosides (800 mg/L Adenosine, 850 mg/L Guanidine, 730 mg/L Cytidine, 730 mg/L Uridine and 240 mg/L Thymidine), 1% Penicillin/Streptomycin (HyClone, SV30010), 1% Sodium Pyruvate (HyClone, SH30239.01), 1% Non-Essential Amino Acids (Hyclone, SH30238.01) and 0.04% Gentamicin (Gibco, 15710-064). Cells were grown for 2 days prior to treatments. The media was aspirated and cells were washed with 1×PBS (Fisher, SH30256.01) and treated with 5 μM (1 mL/well) glycopeptides, reference (Pal-KTTKS, CPC Scientific, 822197), and control (DMSO, Fisher, BP231-100) in serum-free media supplemented with 50 μg/mL Sodium Ascorbate (Sigma, A4034) and 80 μg/mL β-Aminopropionate Fumarate (Sigma, A3134). The treated cells were incubated at 37° C. and 5% CO2 for 48 and 72 hours. At each timepoint, media from each treatment was collected and centrifuged at 1500 RPM for 15 minutes at 4° C. The supernatant was collected and stored at −80° C. for extracellular matrix protein quantification. The following kits were used for quantification of ECM proteins: Fibronectin (Takara, MK115) and Elastin (Uscn Life Science Inc., E91337Hu). The cells were harvest and lysed with 250 μL Lysis Buffer (20 mM Tris-HCl (Sigma, T1503), 137 mM NaCl (Sigma, S9888), 2 mM EDTA (Fisher, BP118), 1% IGEPAL (Sigma, 18896), 10% Glycerol (Sigma, G5516), 100 μM PMSF (Fisher, 36978) and 10 μg/mL Leupeptin (Sigma-Aldrich, L2884). They were placed on a container of ice on a plate shaker (Lab-Line Instruments, 3595) for 30 minutes. The lysate was centrifuged at 10,000 g for 5 minutes at 4° C. The supernatant was collected and used for protein quantification (BioRad, 500-0112).
(§2) To determine effects on extracellular matrix protein secretion, 5 μM of individual glycopeptides were incubated with Human Dermal Fibroblasts (KMST-6). The control sample cells were treated with DMSO (Fisher, BP231-100). As described previously, supernatant was collected from treated cells (at two time-points, 48 and 72 hours of treatment) and stored at −80° C. for subsequent extracellular matrix protein quantification using ELISA kits (Fibronectin (Takara, MK115), Elastin (Uscn Life Science Inc., E91337Hu). For the determination of total cellular protein, treated cells were harvested and lysed. The lysate was centrifuged, the supernatant was collected and then used for protein quantification (BioRad, 500-0112). ELISA plates were read on the plate reader (Molecular Devices) at absorbance of 450 nm and SoftMax Pro software was used to compute the μg/ml values of protein of interest derived from the generated 4-parameter fit standard curve. Each μg/ml of protein secreted was normalized to total protein per well. The data was analysed by averaging out normalized values from at least three independent experiments and presenting them as a % compared to control treatment set at 100% (Table 2-5). Statistical significance was performed using One-way ANOVA (p<0.05) where “*” represents statistical significance when compared to control and “#” represents statistical significance when compared to reference. […]

[2] = tested on: Human Dermal Fibroblasts (KMST-6); experiment: ECM ELISA assay: fibronectin secretion by human dermal fibroblasts; assay type: cell-based; conditions: 5 μM; for Fibronectin secretion at 48 hours: KMST-6, 48 hours; for Fibronectin secretion at 48 hours / Fibronectin Secretion at 72 hours: % compared to control set at 100%, normalized to total protein; for Fibronectin Secretion at 72 hours / FIBRONECTIN (ECM Protein Summary Table): KMST-6, 72 hours; for FIBRONECTIN (ECM Protein Summary Table): control 100%
Experimental: as §1, §2

Row | Substance | biological activity in elastin secretion compared to control ([1]; 72 hours) | increased elastin secretion compared to control ([1]; 72 hours) | Elastin Secretion at 48 hours [1] | Elastin Secretion at 72 hours [1] | ELASTIN (ECM Protein Summary Table) [1] | biological activity in fibronectin secretion compared to control ([2]; 72 hours) | Fibronectin secretion at 48 hours [2] | Fibronectin Secretion at 72 hours [2] | FIBRONECTIN (ECM Protein Summary Table) [2] | increased secretion of elastin compared to the reference peptide ([1]; 72 hours, versus Pal-KTTKS reference) | increased fibronectin secretion compared to control ([2]; 72 hours, versus DMSO control)
1 | Pal-KTTKS(Ac4-β-Gal)-OH (Palmitoyl-KTTKS(Ac4‑β‑Gal)-OH; SMILES CCCCCCCCCCCCCCCC(=O)N[C@@H](CCCCN)C(=O)N[C@H](C(=O)N[C@H](C(=O)N[C@@H](CCCCN)C(=O)N[C@@H](CO[C@@H]1O[C@H](COC(C)=O)[C@H](OC(C)=O)[C@H](OC(C)=O)[C@H]1OC(C)=O)C(=O)O)[C@@H](C)O)[C@@H](C)O; listed as Homo sapiens) [GP002-7] | greater biological activity | 107% | 198.3% | 207.1* % | 207* % | greater biological activity | 113.7% | 116.1% | 116% | – | –
2 | Pal-KTTKS(Ac3-β-GlcNAc)-OH (Palmitoyl-KTTKS(Ac3‑β‑GlcNAc)-OH; SMILES CCCCCCCCCCCCCCCC(=O)N[C@@H](CCCCN)C(=O)N[C@H](C(=O)N[C@H](C(=O)N[C@@H](CCCCN)C(=O)N[C@@H](CO[C@@H]1O[C@H](COC(C)=O)[C@@H](OC(C)=O)[C@H](OC(C)=O)[C@H]1NC(C)=O)C(=O)O)[C@@H](C)O)[C@@H](C)O; listed as Homo sapiens) [GP002-5] | – | – | 159.3% | 137.3% | – | – | 111.3% | 104.2% | – | – | –
3 | Pal-KTT(β-GlcNAc)KS-OH (Palmitoyl-KTT(βGlcNAc)KS-OH; SMILES CCCCCCCCCCCCCCCC(=O)N[C@@H](CCCCN)C(=O)N[C@H](C(=O)N[C@H](C(=O)N[C@@H](CCCCN)C(=O)N[C@@H](CO)C(=O)O)[C@@H](C)O[C@@H]1O[C@H](CO)[C@@H](O)[C@H](O)[C@H]1NC(C)=O)[C@@H](C)O; listed as Homo sapiens) [GP001-12] | – | – | 73.00% | 76.75% | – | – | 106.5% | 89.25% | – | – | –
4 | Pal-KN(Ac4-β-Glc)TKS-OH (Palmitoyl-KN(Ac4‑β‑Glc″)TKS-OH; listed as Homo sapiens) [GP003-5] | – | – | 211.4% | 194.2% | – | – | 146.0% | 136.0% | – | – | –
5 | Pal-KN(β-Glc)TKS-OH (Palmitoyl-KN(βGlc)TKS-OH; listed as Homo sapiens) [GP003-6] | – | – | 170.3% | 128.8% | – | – | 140.2% | 119.7% | – | – | –
6 | Pal-KTT(Ac3-β-GlcNAc)KS-OH (Palmitoyl-KTT(Ac3‑β‑GlcNAc)KS-OH; SMILES CCCCCCCCCCCCCCCC(=O)N[C@@H](CCCCN)C(=O)N[C@H](C(=O)N[C@H](C(=O)N[C@@H](CCCCN)C(=O)N[C@@H](CO)C(=O)O)[C@@H](C)O[C@@H]1O[C@H](COC(C)=O)[C@@H](OC(C)=O)[C@H](OC(C)=O)[C@H]1NC(C)=O)[C@@H](C)O; listed as Homo sapiens) [GP001-11] | – | – | 114.3% | 94.75% | – | – | 111.2% | 113.8% | – | – | –
7 | Pal-KTT(β-Glc)KS-OH (Palmitoyl-KTT(βGlc)KS-OH; SMILES CCCCCCCCCCCCCCCC(=O)N[C@@H](CCCCN)C(=O)N[C@H](C(=O)N[C@H](C(=O)N[C@@H](CCCCN)C(=O)N[C@@H](CO)C(=O)O)[C@@H](C)O[C@@H]1O[C@H](CO)[C@@H](O)[C@H](O)[C@H]1O)[C@@H](C)O; listed as Homo sapiens) [GP001-8] | – | – | 94.25% | 91.25% | – | – | 106.4% | 106.2% | – | – | –
8 | Pal-KTTKS(β-Glc)-OH (Palmitoyl-KTTKS(βGlc)-OH; SMILES CCCCCCCCCCCCCCCC(=O)N[C@@H](CCCCN)C(=O)N[C@H](C(=O)N[C@H](C(=O)N[C@@H](CCCCN)C(=O)N[C@@H](CO[C@@H]1O[C@H](CO)[C@@H](O)[C@H](O)[C@H]1O)C(=O)O)[C@@H](C)O)[C@@H](C)O; listed as Homo sapiens) [GP002-4] | – | – | 145.0% | 142.0% | – | – | 121.5% | 116.0% | – | – | –
9 | Pal-KS(β-Glc)TKS-OH (Palmitoyl-KS(βGlc)TKS-OH; SMILES CCCCCCCCCCCCCCCC(=O)N[C@@H](CCCCN)C(=O)N[C@@H](CO[C@@H]1O[C@H](CO)[C@@H](O)[C@H](O)[C@H]1O)C(=O)N[C@H](C(=O)N[C@@H](CCCCN)C(=O)N[C@@H](CO)C(=O)O)[C@@H](C)O; listed as Homo sapiens) [GP003-4] | – | – | 136.8% | 120.8% | – | – | 165.8* % | 132.5% | – | – | –
10 | Pal-KS(Ac4-β-Glc)TKS-OH (Palmitoyl-KS(Ac4‑β‑Glc″)TKS-OH; SMILES CCCCCCCCCCCCCCCC(=O)N[C@@H](CCCCN)C(=O)N[C@@H](CO[C@@H]1O[C@H](COC(C)=O)[C@@H](OC(C)=O)[C@H](OC(C)=O)[C@H]1OC(C)=O)C(=O)N[C@H](C(=O)N[C@@H](CCCCN)C(=O)N[C@@H](CO)C(=O)O)[C@@H](C)O; listed as Homo sapiens) [GP003-3] | – | – | 177.1% | 146.8% | – | – | 162.0* % | 138.8% | – | – | –
11 | Pal-KTTKS(Ac4-β-Glc)-OH (Palmitoyl-KTTKS(Ac4‑β‑Glc)-OH; SMILES CCCCCCCCCCCCCCCC(=O)N[C@@H](CCCCN)C(=O)N[C@H](C(=O)N[C@H](C(=O)N[C@@H](CCCCN)C(=O)N[C@@H](CO[C@@H]1O[C@H](COC(C)=O)[C@@H](OC(C)=O)[C@H](OC(C)=O)[C@H]1OC(C)=O)C(=O)O)[C@@H](C)O)[C@@H](C)O; listed as Homo sapiens) [GP002-3] | greater biological activity | 222% | 460.4* % | 321.6* % | 322*^# % | greater biological activity | 135.5% | 134.5* % | 135* % | 189% | 35%
12 | Pal-KT(Ac4-β-Glc)TKS-OH (Palmitoyl-KT(Ac4‑β‑Glc)TKS-OH; SMILES CCCCCCCCCCCCCCCC(=O)N[C@@H](CCCCN)C(=O)N[C@H](C(=O)N[C@H](C(=O)N[C@@H](CCCCN)C(=O)N[C@@H](CO)C(=O)O)[C@@H](C)O)[C@@H](C)O[C@@H]1O[C@H](COC(C)=O)[C@@H](OC(C)=O)[C@H](OC(C)=O)[C@H]1OC(C)=O; listed as Homo sapiens) [GP001-1] | greater biological activity | – | 205.3% | 188.0% | 188% | greater biological activity | 159.3* % | 121.5% | 122% | – | –
